Values quoted from earlier work in patent publication EP0225997A2, “Use of urea derivatives for preparing a pharmaceutical composition for the treatment of a virus-induced disease” (Die Deutsches Primatenzentrum GmbH, priority 1985, dated 1987).

Test system: HTLV-III
Conditions: Mitsuya et al. Science, 226 page 172-174, 1984

## Cc1ccc(C(=O)Nc2ccc(S(=O)(=O)O)c3cc(S(=O)(=O)O)cc(S(=O)(=O)O)c23)cc1NC(=O)c1cccc(NC(=O)Nc2cccc(C(=O)Nc3cc(C(=O)Nc4ccc(S(=O)(=O)O)c5cc(S(=O)(=O)O)cc(S(=O)(=O)O)c45)ccc3C)c2)c1 [suramin]
  HTLV-III replications in culture: reduce HTLV-III replications in culture
